In one experiment the test system is T1, AncVert TRPM8.
T1 construct: tetramer
In words: Fluoforte calcium flux assay, HEK-293T stable cells. The settings on record: Homo sapiens. The experiment is classed as cell-based. For orientation: Calcium flux is commonly read through the fluorescence of an indicator in the cells.

The subject of another experiment is T2, AncMam TRPM8.
T2 construct: tetramer
Described as above. The experiment is classed as cell-based. The settings on record: Homo sapiens.

On to `CC(C)[C@@H]1CC[C@@H](C)C[C@H]1O` [menthol], for which the results for the EC50 in the experiment with AncVert TRPM8 and in the experiment with AncMam TRPM8 were 140 ± 40 µM and 10 ± 1 µM, respectively.

Values taken from article PMC11192081, “Evidence that the cold- and menthol-sensing functions of the human TRPM8 channel evolved separately” (Science Advances, 2024).
